Results reported in patent publication US20080033006A1, “1,2,4-Triazolo[ 1,5-A] Pyridines as Gastric Acid Secretion Inhibitors” (Altana Pharma AG, priority 2004, published 2008).

Columns and labels:
[1] = tested on: pentagastrin-stimulated acid secretion of the perfused rat stomach; test: Secretion-inhibiting action on the perfused rat stomach (pentagastrin-stimulated acid secretion); format: in vivo; conditions: anesthetized CD rat, dose 1 μmol/kg i.d.; for inhibition in vivo at 1 µmol/kg: intraduodenal
Description: In Table A which follows, the influence of the compounds according to the invention on the pentagastrin-stimulated acid secretion of the perfused rat stomach after intraduodenal administration in vivo is shown.
The abdomen of anesthetized rats (CD rat, female, 200-250 g; 1.5 g/kg i.m. urethane) was opened after tracheotomy by a median upper abdominal incision and a PVC catheter was fixed transorally in the esophagus and another via the pylorus such that the ends of the tubes just projected into the gastric lumen. The catheter leading from the pylorus led outward into the right abdominal wall through a side opening.
After thorough rinsing (about 50-100 ml), warm (37° C.) physiological NaCl solution was continuously passed through the stomach ([…], pH 6.8-6.9; Braun-Unita I). The pH (pH meter 632, glass electrode EA 147; φ=5 mm, Metrohm) and, by titration with a freshly prepared 0.01N NaOH solution to pH 7 (Dosimat 665 Metrohm), the secreted HCl were determined in the effluent in each case collected at an interval of 15 minutes.
The gastric secretion was stimulated by continuous infusion of 1 μg/kg (=1.65 ml/h) of i.v. pentagastrin (left femoral vein) about 30 min after the end of the operation (i.e. after determination of 2 preliminary fractions). The substances to be tested were administered intraduodenally in a 2.5 ml/kg liquid volume 60 min after the start of the continuous pentagastrin infusion.
The body temperature of the animals was kept at a constant 37.8-38° C. by infrared irradiation and heat pads (automatic, stepless control by means of a rectal temperature sensor).

## CCc1cccc(C)c1CNc1cc(COC)cn2nc(C)nc12 [Example 5, 8-(2-Ethyl-6-methylbenzylamino)-6-methoxymethyl-2-methyl[1,2,4]triazolo-[1,5-a]pyridine]
other
  melting point: 98.7 °C
[1]
  inhibition in vivo at 1 µmol/kg: > 25%

## CCc1cccc(C)c1CNc1cc(CN(C)C)cn2nc(C)nc12.Cl [Example 7, 8-(2-Ethyl-6-methylbenzylamino)-6-dimethylaminomethyl-2-methyl[1,2,4]triazolo[1,5-a]pyridine hydrochloride]
other
  melting point: 235.8 °C
[1]
  inhibition in vivo at 1 µmol/kg: > 25%

## CCc1cccc(C)c1CNc1cc(C(=O)OC)cn2nc(C)nc12 [Example 1, 8-(2-Ethyl-6-methylbenzylamino)-2-methyl[1,2,4]triazolo[1,5-a]pyridine-6-carboxylic acid methyl ester]
other
  melting point: 139.8 °C

## CCc1cccc(C)c1CNc1cc(COCCOC)cn2nc(C)nc12.Cl [Example 13, 8-(2-Ethyl-6-methylbenzylamino)-6-(2-methoxyethoxymethyl)-2-methyl-[1,2,4]triazolo[1,5-a]pyridine hydrochloride]
other
  melting point: 120.2 °C
[1]
  inhibition in vivo at 1 µmol/kg: > 25%

## CCc1cccc(C)c1CNc1cc(CO)cn2nc(C)nc12 [Example 6, 8-(2-Ethyl-6-methylbenzylamino)-6-hydroxymethyl-2-methyl[1,2,4]triazolo-[1,5-a]pyridine]
other
  melting point: 180.3 °C
[1]
  inhibition in vivo at 1 µmol/kg: < 25%

## CCc1cccc(C)c1CNc1cc(C(=O)N(C)C)cn2nc(C)nc12 [Example 3, 8-(2-Ethyl-6-methylbenzylamino)-N,N,2-trimethyl[1,2,4]triazolo[1,5-a]pyridine-6-carboxamide]
[1]
  inhibition in vivo at 1 µmol/kg: > 25%

## CCc1cccc(C)c1CNc1cc(Cn2ccnc2)cn2nc(C)nc12 [Example 11, 8-(2-Ethyl-6-methylbenzylamino)-6-(imidazol-1-ylmethyl)-2-methyl[1,2,4]triazolo-[1,5-a]-pyridine]
other
  melting point: 158.5 °C
[1]
  inhibition in vivo at 1 µmol/kg: > 25%

## CCc1cccc(C)c1CNc1cc(CNC)cn2nc(C)nc12 [Example 8, 8-(2-Ethyl-6-methylbenzylamino)-6-methylaminomethyl-2-methyl[1,2,4]triazolo-[1,5-a]-pyridine]
other
  melting point: 179 °C
[1]
  inhibition in vivo at 1 µmol/kg: > 25%

## CCc1cccc(C)c1CNc1cc(C(=O)NCCOC)cn2nc(C)nc12 [Example 4, 8-(2-Ethyl-6-methylbenzylamino)-N-(2-methoxyethyl)-2-methyl[1,2,4]triazolo-[1,5a]-pyridine-6-carboxamide]
[1]
  Inhibition of acid secretion: <25%

## CCc1cccc(C)c1CNc1cc(CN)cn2nc(C)nc12 [Example 9, 8-(2-Ethyl-6-methylbenzylamino)-6-aminomethyl-2-methyl[1,2,4]triazolo-[1,5-a]pyridine]
[1]
  inhibition in vivo at 1 µmol/kg: < 25%

## CCc1cccc(C)c1CNc1cc(CN2CCOCC2)cn2nc(C)nc12 [Example 10, 8-(2-Ethyl-6-methylbenzylamino)-6-morpholinomethyl-2-methyl[1,2,4]triazolo-[1,5-a]-pyridine]
other
  melting point: 97.2 °C
[1]
  inhibition in vivo at 1 µmol/kg: < 25%

## CCc1cccc(C)c1CNc1cc(C(=O)O)cn2nc(C)nc12 [Example 2, 8-(2-Ethyl-6-methyl-benzylamino)-2-methyl[1,2,4]triazolo[1,5-a]pyridine-6-carboxylic acid]
other
  melting point: 264.1 °C
